ChEMBL document CHEMBL5365553, “Design of Synthetic Surrogates for the Macrolactone Linker Motif in Coibamide A” (ACS Med Chem Lett, 2023)
Activity calls are given as the source filed them. No cut-off for these calls is given here. Positions of bridges follow the written chain, without caps; N, C: chain ends. Non-standard residues stand in square brackets, D forms with d. Residues, ends and D or L forms follow the SMILES beside them. *: point of attachment. NMe2Val = CC(C)[C@@H](C(=O)*)N(C)C; NMeLys(Me) = CNCCCC[C@H](NC)C(=O)O; NMeI = CC[C@H](C)[C@H](NC)C(=O)O; NMeT = CN[C@H](C(=O)O)[C@@H](C)O; NMeL = CN[C@@H](CC(C)C)C(=O)O; NMeDap = CN[C@@H](CN)C(=O)O; dHiv = CC(C)[C@@H](O)C(=O)O; NMeA = CN[C@@H](C)C(=O)O; dNMeA = CN[C@H](C)C(=O)O

Columns and labels:
Assay type in all cases: functional, cell-based
U-87 MG [1] = experiment: Antiproliferative activity against human U-87 MG cells expressing GLuc assessed as as inhibition of GLuc secretion incubated for 18 hrs by CellTiter-Glo Luminescent Cell Viability Assay; conditions: U-87MG ATCC
U-87 MG [2] = experiment: Antiproliferative activity against human U87 cells expressing GLuc assessed as inhibition of GLuc secretion incubated for 18 hrs by CellTiter-Glo Luminescent Cell Viability Assay; conditions: U-87MG ATCC, dose 0.1-10 µM
U-87 MG [3] = experiment: Antiproliferative activity against human U-87MG cells expressing GLuc assessed as cell viability at 0.0003 to 300 nM incubated for 18 hrs by CellTiter-Glo Luminescent Cell Viability Assay; conditions: U-87MG ATCC, dose 0.0003-300 nM
SF-268 [4] = experiment: Inhibition of endogenously-secreted VEGF-A in human SF-268 cells incubated for 24 hrs by ELISA assay; conditions: dose 30-100 nM
SF-268 [5] = experiment: Downregulation of VEGF-A protein secretion level in human SF-268 cells for 24 hrs by ELISA analysis; conditions: dose 30-100 nM
SF-268 [6] = experiment: Downregulation of VEGF-A protein secretion level in human SF-268 cells at 30 to 300 nM for 24 hrs by ELISA analysis; conditions: dose 30-300 nM

Row | Compound | inhibition (U-87 MG [1]) | Activity (U-87 MG [2]) | inhibition (U-87 MG [3]) | inhibition (SF-268 [4]) | Activity (SF-268 [5]) | Activity (SF-268 [6])
1 | CC[C@H](C)[C@H]1C(=O)N[C@@H](C)C(=O)N(C)[C@@H](CC(C)C)C(=O)N[C@@H](Cc2ccc(-c3ccccc3)cc2)C(=O)N(C)[C@H](C)C(=O)N[C@H](C)[C@H](N(C)C(=O)[C@H](CC(C)C)N(C)C(=O)[C@H](COC)N(C)C(=O)[C@H](OC(=O)[C@H](C(C)C)N(C)C)C(C)C)C(=O)N(C)[C@@H](COC)C(=O)N1C | Dose-Dependent Effect | Dose-Dependent Effect | inactive |  |  | 
2 | CC[C@H](C)[C@H]1C(=O)N[C@@H](C)C(=O)N(C)[C@@H](CC(C)C)C(=O)N[C@@H](Cc2ccc(OC)cc2)C(=O)N(C)[C@H](C)C(=O)O[C@H](C)[C@H](N(C)C(=O)[C@H](CC(C)C)N(C)C(=O)[C@H](C)N(C)C(=O)[C@H](OC(=O)[C@H](C(C)C)N(C)C)C(C)C)C(=O)N(C)[C@@H](C)C(=O)N1C (NMe2Val-[dHiv][NMeA][NMeL][NMeT][NMeA][NMeI]A[NMeL]Y(Me)[dNMeA]; ester 4-C) | Dose-Dependent Effect | Dose-Dependent Effect | inactive |  |  | 
3 | CC[C@H](C)[C@H]1C(=O)N[C@@H](C)C(=O)N(C)[C@@H](CC(C)C)C(=O)N[C@@H](Cc2ccc(OC)cc2)C(=O)N(C)[C@H](C)C(=O)N[C@H](C)[C@H](N(C)C(=O)[C@H](CC(C)C)N(C)C(=O)[C@H](COC)N(C)C(=O)[C@H](OC(=O)[C@H](C(C)C)N(C)C)C(C)C)C(=O)N(C)[C@@H](COC)C(=O)N1C | Dose-Dependent Effect | Dose-Dependent Effect | inactive | Dose-Dependent Effect | Dose-Dependent Effect | 
4 | CC[C@H](C)[C@H]1C(=O)N[C@@H](C)C(=O)N(C)[C@@H](CC(C)C)C(=O)N[C@@H](Cc2ccc(OC)cc2)C(=O)N(C)[C@H](C)C(=O)NC[C@H](N(C)C(=O)[C@H](CC(C)C)N(C)C(=O)[C@H](C)N(C)C(=O)[C@H](OC(=O)[C@H](C(C)C)N(C)C)C(C)C)C(=O)N(C)[C@@H](C)C(=O)N1C (NMe2Val-[dHiv][NMeA][NMeL][NMeDap][NMeA][NMeI]A[NMeL]Y(Me)[dNMeA]; lactam 4-C) | Dose-Dependent Effect | Dose-Dependent Effect | inactive |  |  | 
5 | CC[C@H](C)[C@H]1C(=O)N[C@@H](C)C(=O)N(C)[C@@H](CC(C)C)C(=O)N[C@@H](Cc2ccc(OC)cc2)C(=O)N(C)[C@H](C)C(=O)N(C)C[C@H](N(C)C(=O)[C@H](CC(C)C)N(C)C(=O)[C@H](C)N(C)C(=O)[C@H](OC(=O)[C@H](C(C)C)N(C)C)C(C)C)C(=O)N(C)[C@@H](C)C(=O)N1C | Dose-Dependent Effect |  | inactive |  |  | 
6 | CC[C@H](C)[C@H]1C(=O)N[C@@H](C)C(=O)N(C)[C@@H](CC(C)C)C(=O)N[C@@H](Cc2ccc(OC)cc2)C(=O)N(C)[C@H](C)/C=C/[C@H](C)[C@H](N(C)C(=O)[C@H](CC(C)C)N(C)C(=O)[C@H](C)N(C)C(=O)[C@H](OC(=O)[C@H](C(C)C)N(C)C)C(C)C)C(=O)N(C)[C@@H](C)C(=O)N1C | Dose-Dependent Effect | Dose-Dependent Effect | inactive |  |  | 
7 | CC[C@H](C)[C@H]1C(=O)N[C@@H](C)C(=O)N(C)[C@@H](CC(C)C)C(=O)N[C@@H](Cc2ccc(OC)cc2)C(=O)N(C)CCCC[C@H](N(C)C(=O)[C@H](CC(C)C)N(C)C(=O)[C@H](C)N(C)C(=O)[C@H](OC(=O)[C@H](C(C)C)N(C)C)C(C)C)C(=O)N(C)[C@@H](C)C(=O)N1C (NMe2Val-[dHiv][NMeA][NMeL][NMeLys(Me)][NMeA][NMeI]A[NMeL]Y(Me); lactam 4-C) | Dose-Dependent Effect | Dose-Dependent Effect | inactive | Dose-Dependent Effect |  | Dose-Dependent Effect
8 | CC[C@H](C)[C@H]1C(=O)N[C@@H](C)C(=O)N(C)[C@@H](CC(C)C)C(=O)N[C@@H](Cc2ccc(OC)cc2)C(=O)N(C)[C@H](C)CC[C@H](C)[C@H](N(C)C(=O)[C@H](CC(C)C)N(C)C(=O)[C@H](C)N(C)C(=O)[C@H](OC(=O)[C@H](C(C)C)N(C)C)C(C)C)C(=O)N(C)[C@@H](C)C(=O)N1C | Dose-Dependent Effect | Dose-Dependent Effect | inactive | Dose-Dependent Effect |  | Dose-Dependent Effect
9 | CC[C@H](C)[C@H]1C(=O)N[C@@H](C)C(=O)N(C)[C@@H](CC(C)C)C(=O)N[C@@H](Cc2ccc(OC)cc2)C(=O)N(C)[C@H](C)C(=O)N[C@H](C)[C@H](N(C)C(=O)[C@H](CC(C)C)N(C)C(=O)[C@H](C)N(C)C(=O)[C@H](OC(=O)[C@H](C(C)C)N(C)C)C(C)C)C(=O)N(C)[C@@H](C)C(=O)N1C | Dose-Dependent Effect | Dose-Dependent Effect | inactive |  |  | 
